# Results published in patent publication US20060069132A1, “Azolecarboxamide herbicides” (priority 2004, published 2006).
# Like-named read-outs stand apart in the source and are kept apart here.
# Experiments:
# barnyardgrass = assay: Test B pre-/postemergence herbicide test; assay type: in vivo, Echinochloa crus-galli; conditions: Echinochloa crus-galli; for pest or weed control at 125 g/ha: 125 g ai/ha; for pest or weed control at 500 g/ha: 500 g ai/ha
# Procedure, shortened: (§1)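 Flooded paddy rice and barnyardgrass were treated at the 2-leaf stage; upland plantings received compound either on sown seed or on 1- to 4-leaf seedlings. All were kept 13–15 days in a greenhouse and scored visually, 0–100, relative to untreated plants.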
# large crabgrass = assay: Test B pre-/postemergence herbicide test; assay type: in vivo, Digitaria sanguinalis; conditions: Digitaria sanguinalis; for pest or weed control at 125 g/ha: 125 g ai/ha; for pest or weed control at 500 g/ha: 500 g ai/ha
# Procedure, shortened: (§2)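 Response was scored visually 13 to 15 days after treatment against untreated greenhouse controls, 0 meaning no effect and 100 complete control. Formulations (solvent mixture plus surfactant) went onto soil after planting, onto foliage of 1- to 4-leaf plants, and onto 2-leaf plants in a flooded paddy set including rice and barnyardgrass.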
# velvetleaf = assay: Test B pre-/postemergence herbicide test; assay type: in vivo, Abutilon theophrasti; conditions: Abutilon theophrasti, 336 h; for pest or weed control at 125 g/ha: 125 g ai/ha; for pest or weed control at 500 g/ha: 500 g ai/ha
# Procedure, shortened: as §2
# [1] = test system: small flower umbrella sedge; assay: Test B flooded paddy test; assay type: in vivo, Cyperus difformis; conditions: Cyperus difformis, 336 h, 1000 g ai/ha, scale 0 to 100 (0 no effect, 100 complete control), read-out: Sedge, Umbrella plant response rating
# Procedure, shortened: (§3)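 After treating 2-leaf paddy plants or 2–18 cm postemergence plants (1 to 4 leaves) with formulated chemical, researchers kept them in a greenhouse for 13–15 days. Effects were judged visually versus controls: 0 indicates none, 100 total control.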
# corn = assay: Test B pre-/postemergence herbicide test; assay type: in vivo, Zea mays; conditions: Zea mays; for plant injury at 125 g/ha: 125 g ai/ha
# Procedure, shortened: as §2
# wheat = assay: Test B postemergence herbicide test; assay type: in vivo, Triticum aestivum; conditions: Triticum aestivum, post-emergence, 336 h, postemergence, read-out: Wheat plant response rating
# Procedure, shortened: (§4)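 Formulated test chemicals went onto postemergence plants measuring 2 to 18 cm, at one to four leaves. For the paddy assay, species had reached two leaves. Scoring took place 13–15 days later by eye, relative to untreated plants, using 0 for no effect up to 100 for full control.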
# blackgrass = assay: Test B postemergence herbicide test; assay type: in vivo, Alopecurus myosuroides; conditions: Alopecurus myosuroides, post-emergence, 336 h, postemergence, visual rating, scale 0 (no effect) to 100 (complete control), read-out: Blackgrass plant response rating
# Procedure, shortened: as §3
# giant foxtail = assay: Test B pre-/postemergence herbicide test; assay type: in vivo, Setaria faberi; conditions: Setaria faberi, 336 h; for pest or weed control at 125 g/ha: 125 g ai/ha; for pest or weed control at 500 g/ha: 500 g ai/ha
# Procedure, shortened: as §2
# wild oat = assay: Test B postemergence herbicide test; assay type: in vivo, Avena fatua; conditions: Avena fatua, post-emergence, 336 h, postemergence, read-out: Oat, Wild plant response rating
# Procedure, shortened: as §4
# Surinam grass = assay: Test B pre-/postemergence herbicide test; assay type: in vivo, Urochloa decumbens; conditions: Urochloa decumbens; for pest or weed control at 125 g/ha: 125 g ai/ha; for pest or weed control at 500 g/ha: 500 g ai/ha
# Procedure, shortened: as §2
# cocklebur = assay: Test B pre-/postemergence herbicide test; assay type: in vivo, Xanthium strumarium; conditions: Xanthium strumarium; for pest or weed control at 125 g/ha: 125 g ai/ha; for pest or weed control at 500 g/ha: 500 g ai/ha
# Procedure, shortened: as §1
# pigweed = assay: Test B pre-/postemergence herbicide test; assay type: in vivo, Amaranthus retroflexus; conditions: Amaranthus retroflexus, 336 h; for pest or weed control at 125 g/ha: 125 g ai/ha; for pest or weed control at 500 g/ha: 500 g ai/ha
# Procedure, shortened: as §2
# morningglory = assay: Test B pre-/postemergence herbicide test; assay type: in vivo, Ipomoea coccinea; conditions: Ipomoea, 336 h; for pest or weed control at 125 g/ha: 125 g ai/ha; for pest or weed control at 500 g/ha: 500 g ai/ha
# Procedure, shortened: as §1
# lambsquarters = assay: Test B pre-/postemergence herbicide test; assay type: in vivo, Chenopodium album; conditions: Chenopodium album, 336 h; for pest or weed control at 125 g/ha: 125 g ai/ha; for pest or weed control at 500 g/ha: 500 g ai/ha
# Procedure, shortened: as §2
# [2] = post-emergence, postemergence, visual rating, scale 0 (no effect) to 100 (complete control), read-out: Barnyardgrass plant response rating
# [3] = 125 g ai/ha, visual rating, scale 0 (no effect) to 100 (complete control)
# [4] = 500 g ai/ha, scale 0 to 100, 0 is no effect, 100 is complete control
# [5] = post-emergence, postemergence, visual rating, scale 0 (no effect) to 100 (complete control), read-out: Cocklebur plant response rating
structure (smiles),measurement,setting,value
"CCN1N=C(C(C)(C)C)CC1C(=O)Nc1cc(C(=O)N(C)C)ccc1F (centres unmarked) [Compound 268, N-[5-[(dimethylamino)carbonyl]-2-fluorophenyl]-3-(1,1-dimethylethyl)-1-ethyl-4,5-dihydro-1H-pyrazole-5-carboxamide]",pest or weed control at 125 g/ha,barnyardgrass; [2],0%
same,pest or weed control at 500 g/ha,barnyardgrass; [2],30%
same,pest or weed control at 125 g/ha,"barnyardgrass; pre-emergence, 0 = no effect, 100 = complete control, read-out: Barnyardgrass plant response rating (0 to 100 scale)",100%
same,pest or weed control at 500 g/ha,"barnyardgrass; pre-emergence, visual rating, 0 = no effect, 100 = complete control, read-out: Plant response rating, Barnyardgrass",100%
same,pest or weed control at 125 g/ha,"large crabgrass; post-emergence, postemergence, visual rating, scale 0 (no effect) to 100 (complete control), read-out: Crabgrass, Large plant response rating",0%
same,pest or weed control at 500 g/ha,"large crabgrass; post-emergence, postemergence, scale 0 to 100, 0 is no effect, 100 is complete control, read-out: Crabgrass, Large plant response rating",20%
same,pest or weed control at 125 g/ha,"large crabgrass; pre-emergence, 0 = no effect, 100 = complete control, read-out: Crabgrass, Large plant response rating (0 to 100 scale)",100%
same,pest or weed control at 500 g/ha,"large crabgrass; pre-emergence, visual rating, 0 = no effect, 100 = complete control, read-out: Plant response rating, Crabgrass, Large",100%
same,pest or weed control at 125 g/ha,"velvetleaf; post-emergence, postemergence, visual rating, scale 0 (no effect) to 100 (complete control), read-out: Velvetleaf plant response rating",20%
same,pest or weed control at 500 g/ha,"velvetleaf; post-emergence, postemergence, scale 0 to 100, 0 is no effect, 100 is complete control, read-out: Velvetleaf plant response rating",60%
same,pest or weed control at 125 g/ha,"velvetleaf; pre-emergence, 0 = no effect, 100 = complete control, read-out: Velvetleaf plant response rating (0 to 100 scale)",100%
same,pest or weed control at 500 g/ha,"velvetleaf; pre-emergence, visual rating, 0 = no effect, 100 = complete control, read-out: Plant response rating, Velvetleaf",100%
same,pest or weed control at 1000 g/ha,[1],80%
same,plant injury at 125 g/ha,"corn; post-emergence, postemergence, visual rating, scale 0 (no effect) to 100 (complete control), read-out: Corn plant response rating",20%
same,plant injury at 500 g/ha,"corn; post-emergence, postemergence, 500 g ai/ha, scale 0 to 100, 0 is no effect, 100 is complete control, read-out: Corn plant response rating",30%
same,plant injury at 125 g/ha,"corn; pre-emergence, 0 = no effect, 100 = complete control, read-out: Corn plant response rating (0 to 100 scale)",80%
same,"Corn plant response rating (crop injury, 0 = no effect, 100 = complete kill) at 500 g/ha","corn; pre-emergence, 500 g ai/ha, visual rating, 0 = no effect, 100 = complete control",90%
same,plant injury at 125 g/ha,wheat; [3],30%
same,plant injury at 500 g/ha,wheat; [4],30%
same,pest or weed control at 125 g/ha,blackgrass; 125 g ai/ha,30%
same,pest or weed control at 500 g/ha,blackgrass; 500 g ai/ha,50%
same,pest or weed control at 125 g/ha,"giant foxtail; post-emergence, postemergence, visual rating, scale 0 (no effect) to 100 (complete control), read-out: Foxtail, Giant plant response rating",10%
same,pest or weed control at 500 g/ha,"giant foxtail; post-emergence, postemergence, scale 0 to 100, 0 is no effect, 100 is complete control, read-out: Foxtail, Giant plant response rating",20%
same,pest or weed control at 125 g/ha,"giant foxtail; pre-emergence, 0 = no effect, 100 = complete control, read-out: Foxtail, Giant plant response rating (0 to 100 scale)",100%
same,pest or weed control at 500 g/ha,"giant foxtail; pre-emergence, visual rating, 0 = no effect, 100 = complete control, read-out: Plant response rating, Foxtail, Giant",100%
same,pest or weed control at 125 g/ha,wild oat; [3],30%
same,pest or weed control at 500 g/ha,wild oat; [4],50%
same,pest or weed control at 125 g/ha,"Surinam grass; post-emergence, postemergence, visual rating, scale 0 (no effect) to 100 (complete control), read-out: Surinam Grass plant response rating",10%
same,pest or weed control at 500 g/ha,"Surinam grass; post-emergence, postemergence, scale 0 to 100, 0 is no effect, 100 is complete control, read-out: Surinam Grass plant response rating",50%
same,pest or weed control at 125 g/ha,"Surinam grass; pre-emergence, 0 = no effect, 100 = complete control, read-out: Surinam Grass plant response rating (0 to 100 scale)",80%
same,pest or weed control at 500 g/ha,"Surinam grass; pre-emergence, visual rating, 0 = no effect, 100 = complete control, read-out: Plant response rating, Surinam Grass",100%
same,pest or weed control at 125 g/ha,cocklebur; [5],20%
same,pest or weed control at 500 g/ha,cocklebur; [5],50%
same,pest or weed control at 125 g/ha,"cocklebur; pre-emergence, 0 = no effect, 100 = complete control, read-out: Cocklebur plant response rating (0 to 100 scale)",80%
same,pest or weed control at 500 g/ha,"cocklebur; pre-emergence, visual rating, 0 = no effect, 100 = complete control, read-out: Plant response rating, Cocklebur",90%
same,pest or weed control at 125 g/ha,"pigweed; post-emergence, postemergence, visual rating, scale 0 (no effect) to 100 (complete control), read-out: Pigweed plant response rating",20%
same,pest or weed control at 500 g/ha,"pigweed; post-emergence, postemergence, scale 0 to 100, 0 is no effect, 100 is complete control, read-out: Pigweed plant response rating",50%
same,pest or weed control at 125 g/ha,"pigweed; pre-emergence, 0 = no effect, 100 = complete control, read-out: Pigweed plant response rating (0 to 100 scale)",100%
same,pest or weed control at 500 g/ha,"pigweed; pre-emergence, visual rating, 0 = no effect, 100 = complete control, read-out: Plant response rating, Pigweed",100%
same,pest or weed control at 125 g/ha,"morningglory; post-emergence, postemergence, visual rating, scale 0 (no effect) to 100 (complete control), read-out: Morningglory plant response rating",10%
same,pest or weed control at 500 g/ha,"morningglory; post-emergence, postemergence, scale 0 to 100, 0 is no effect, 100 is complete control, read-out: Morningglory plant response rating",20%
same,pest or weed control at 125 g/ha,"morningglory; pre-emergence, 0 = no effect, 100 = complete control, read-out: Morningglory plant response rating (0 to 100 scale)",0%
same,pest or weed control at 500 g/ha,"morningglory; pre-emergence, visual rating, 0 = no effect, 100 = complete control, read-out: Plant response rating, Morningglory",20%
same,pest or weed control at 125 g/ha,"lambsquarters; post-emergence, postemergence, visual rating, scale 0 (no effect) to 100 (complete control), read-out: Lambsquarters plant response rating",60%
same,pest or weed control at 500 g/ha,"lambsquarters; post-emergence, postemergence, scale 0 to 100, 0 is no effect, 100 is complete control, read-out: Lambsquarters plant response rating",70%
same,pest or weed control at 125 g/ha,"lambsquarters; pre-emergence, 0 = no effect, 100 = complete control, read-out: Lambsquarters plant response rating (0 to 100 scale)",100%
same,pest or weed control at 500 g/ha,"lambsquarters; pre-emergence, visual rating, 0 = no effect, 100 = complete control, read-out: Plant response rating, Lambsquarters",100%
